From patent US4399290A, “Optically active tert-alkyl 7-(2-oxo-5-carbonyloxypyrrolidinyl)heptanoates” (E. I. Du Pont de Nemours and Company, priority 1981, dated 1983)

Columns and labels:
[1] = test system: stomach (necrosis and inflammation caused by ethanol); assay: oral cytoprotection against absolute-ethanol-induced stomach necrosis and inflammation (similar to Robert, U.S. Pat. No. 4,097,603); format: in vivo, rat (fasted, male); conditions: for Percent Protection, 2 mg/kg 1 hr: 2 mg/kg oral, 1 hour interval between administration of compound and subsequent administration of ethanol; for cytoprotective potency relative to racemic form: optical isomer versus racemic form, Table 1 data
Procedure: The data of Table 1 are from tests similar to one described by Robert [U.S. Pat. No. 4,097,603 (1978)] in which fasted, male rats were treated with 8-azaprostanoids orally. Then, at various times later they were treated orally with 1.0 ml of absolute ethanol. The rats were sacrificed after ethanol administration and the stomachs were removed, inspected, and rated. The ED50 values of Table 1 represent the doses of 8-azaprostanoids that gave 50% protection from the necrosis and inflammation of the stomach caused by ethanol. For comparison, values are given for the natural prostaglandin, PGE1, and for racemic 7-[2-oxo-5(4,4-difluoro-3-hydroxy-1n-dec-1(E)-enyl)-1-pyrrolidinyl]heptanoic acid, which is identified in Table 1 as compound 8. The corresponding racemic tert-butyl ester is identified as 7. The structures of 7 and 8, each of which is a mixture of 4 optical isomers, are as follows: [drawing 18]
*"1 hr" refers to the 1 hour interval between administration of compound
and subsequent administration of ethanol.
**"Peak Time" refers to the interval between administration of compound
and administration of ethanol at which greatest protection is observed.

PGE1; rat stomach strips = assay: antagonism of PGE1 in in vitro tests on rat stomach strips; conditions: relative to racemic form 7
Excerpt: Some differences in biological activities of the racemic forms and different optical isomers of these 8-azaprostanoids can be seen in the data presented in Table 1.

| Structure (SMILES) | Percent Protection, 2 mg/kg 1 hr [1] [%] | cytoprotective potency relative to racemic form [1] | potency as an antagonist of PGE1 (PGE1; rat stomach strips) | Peak Time ([1]; interval between administration of compound and of ethanol at which greatest protection is observed) [min] |
| --- | --- | --- | --- | --- |
| CCCCCCC(F)(F)C(O)/C=C/C1CCC(=O)N1CCCCCCC(=O)OC(C)(C)C (single isomer, unassigned) [7d(15R,S), tert-butyl 7-[2-oxo-5-(S or R)-5-(4,4-difluoro-3(R,S)hydroxy-ln-dec-1(E)-enyl)-1-pyrrolidinyl]heptanoate] | -5 | less potent than its racemic form 7 | more potent than 7 as an antagonist of PGE1 | – |
| CCCCCCC(F)(F)C(O)/C=C/C1CCC(=O)N1CCCCCCC(=O)OC(C)(C)C (single isomer, unassigned) [7l(15R,S), tert-butyl 7-[2-oxo-5(R or S)-5-(4,4-difluoro-3(R,S)hydroxy-ln-dec-1(E)-enyl)-1-pyrrolidinyl]heptanoate] | 59 | – | – | – |
| CCCCCCC(F)(F)[C@H](O)/C=C/[C@H]1CCC(=O)N1CCCCCCC(=O)O (single isomer, unassigned) [8l(15R), 7-[2-oxo-5(R or S)-5-(4,4-difluoro-3(R or S)-3-hydroxy-ln-dec-1(E)enyl)-1-pyrrolidinyl]heptanoic acid] | – | more potent as a cytoprotective agent than its racemic form 8 | – | – |
| CCCCCCC(F)(F)[C@@H](O)/C=C/[C@H]1CCC(=O)N1CCCCCCC(=O)O (single isomer, unassigned) [8l(15S), 7-[2-oxo-5(R or S)-5-(4,4-difluoro-3(R or S)-3-hydroxy-ln-dec-1(E)enyl)-1-pyrrolidinyl]heptanoic acid] | – | – | – | 15 |
